{"source": "patent US5589489A", "about": "“Cyclic amide derivatives for treating asthma” (Zeneca Limited, priority 1993, dated 1996)", "biological_target": "T1, guinea pig trachea (Cavia porcellus, UniProt Q64077)", "T1 construct": "functional assay in guinea pig trachea; from tissue; host or cells: guinea pig trachea (male animals), tracheal rings", "T1 sequence (Q64077 1-402)": "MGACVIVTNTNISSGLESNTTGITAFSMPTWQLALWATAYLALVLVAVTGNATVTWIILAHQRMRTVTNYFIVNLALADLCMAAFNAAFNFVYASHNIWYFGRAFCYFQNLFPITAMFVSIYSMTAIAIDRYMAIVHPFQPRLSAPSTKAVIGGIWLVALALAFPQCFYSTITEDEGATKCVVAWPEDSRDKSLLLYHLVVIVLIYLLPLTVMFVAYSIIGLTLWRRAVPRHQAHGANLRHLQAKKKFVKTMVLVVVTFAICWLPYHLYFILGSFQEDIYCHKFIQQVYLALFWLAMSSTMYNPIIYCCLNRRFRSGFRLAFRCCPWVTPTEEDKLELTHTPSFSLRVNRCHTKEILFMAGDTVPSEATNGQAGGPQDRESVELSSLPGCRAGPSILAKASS", "test": "Guinea Pig Assay (Test B), functional antagonism of NKA or [β-ala8]-NKA(4-10) in guinea pig trachea", "assay_type": "cell-based", "settings": "read-out: pKB (-log molar KB, apparent dissociation constant) (converted)", "experimental": "The chosen agonist is refered to as AG throughout the description.\nMale guinea pigs are killed by a sharp blow to the back of the head. The trachea are removed, trimmed of excess tissue and divided into two segments. Each segment is suspended as a ring between stainless steel stirrups in water-jacketed (37.5° C.) tissue baths containing a physiological salt solution of the following composition (mM): NaCl, 119; KCl 4.6; CaCl2, 1.8; MgCl2, 0.5; NaH2 PO4, 1; NaHCO3, 25; glucose, 11; thiorphan, 0.001; and indomethacin, 0.005; gassed continuously with 95% O2 -%5 CO2. […] Contractile responses are measured on a Grass polygraph via Grass FT-03 force transducers.\nTissues are challenged repetitively with a single concentration of AG (10 nM) with intervening 30 min periods with washing to allow the tension to return to baseline levels. […] Percent inhibition is determined when a Compound produces a statistically significant (p<0.05) reduction of the contraction and is calculated using the second contractile response as 100%.\nPotencies of selected Compounds are evaluated by calculating apparent dissociation constants (KB) for each concentration tested using the standard equation: […]\nwhere dose ratio=antilog[(AG -log molar EC50 without Compound)-(AG -log molar EC50 with Compound)]. The KB values may be converted to the negative logarithms and expressed as -log molar KB (i.e. pKB). […]", "note": "Where a name gives a salt, the structure may show the parent alone."}
{"smiles": "CN1C(=O)c2ccccc2[C@H]1[C@@H](CCN1CCC(O)(c2ccccc2)CC1)c1ccc(Cl)c(Cl)c1", "note": "(single isomer, unassigned) [Example 4, (-)-(3R/3S)-3-[(1S/1R)-1-(3,4-dichlorophenyl)-3-(4-hydroxy-4-phenylpiperidino)propyl]-2-methyl-2,3-dihydroisoindol-1-one hydrochloride]", "values": [{"measurement": "Kb", "result": 20, "unit": "nM"}]}
